Earlier results, collected in PMC3826776 (Bioorganic & medicinal chemistry letters, 2011).

Key:
mGluR5 [1] = details: read-out: IC50 (literature values); literature value
mGluR5 [2] = details: read-out: Ki (literature values); literature value
[3] = test system: brain p-glycoprotein efflux pump (P-gp); details: stated without reference

Compound | IC50 (mGluR5 [1]) | Ki (mGluR5 [2]) | P-gp substrate [3]
Cc1cccc(C#Cc2ccccc2)n1 [MPEP, 2-methyl-6-(phenylethynyl)-pyridine] | 2 nM | 12 nM | not P-gp substrates
Cc1nc(C#Cc2cccnc2)cs1 [MTEP, 3-[(2-methyl-1,3-thiazol-4yl)-ethynyl]-pyridine] | – | – | not P-gp substrates
